Measurements published in PubChem BioAssay (NCI).
Several values for one entry are separate records, joined by “and”; a condition that tells them apart may be missing. Equal values may be shown once.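 Tested at 5 concentrations; 48 h exposure; 96-well plates; endpoints linearly interpolated, else capped at highest concentration. GI50 is the concentration that inhibits growth by half. TGI: total growth inhibition.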

Assays:
Assay in all cases: inhibition of tumour cell growth, NCI panel, 48 h
A549 NSCLC = tested on: A549 NSCLC
SW-620 colon = tested on: SW-620 colon
RXF 393 renal = tested on: RXF 393 renal
KM12 colon = tested on: KM12 colon
MDA-MB-231 breast = tested on: MDA-MB-231 breast
IGROV1 ovarian = tested on: IGROV1 ovarian
RPMI-8226 leukemia = tested on: RPMI-8226 leukemia
UACC-62 melanoma = tested on: UACC-62 melanoma
SN12C renal = tested on: SN12C renal
NCI-H460 lung = tested on: NCI-H460 lung
K-562 leukemia = tested on: K-562 leukemia
SR leukemia = tested on: SR leukemia

SMILES	TGI (A549 NSCLC)	TGI (SW-620 colon)	TGI (RXF 393 renal)	TGI (KM12 colon)	TGI (MDA-MB-231 breast)	TGI (IGROV1 ovarian)	TGI (RPMI-8226 leukemia)	TGI (UACC-62 melanoma)	TGI (SN12C renal)	TGI (NCI-H460 lung)	TGI (K-562 leukemia)	TGI (SR leukemia)	GI50 (MDA-MB-231 breast)
CC(=O)NC1C(Sc2ncn(C3OC(CO)C(O)C(O)C3NC(C)=O)n2)OC(CO)C(O)C1O (stereo not drawn)	> 100 µM	> 100 µM	> 100 µM	> 100 µM	> 100 µM	> 100 µM	> 100 µM	> 100 µM	> 100 µM	> 100 µM			
C/C=C\C(CC(=O)NCC(=O)c1c[nH]c2ccccc12)CC(=O)OC (stereo not drawn)	> 100 µM	> 100 µM	> 100 µM	> 100 µM	> 100 µM	> 100 µM	> 100 µM	> 100 µM		> 100 µM	> 100 µM	> 100 µM	
CC(=O)Nc1c(C(=N)C#N)ncn1CCO	> 100 µM	> 100 µM	> 100 µM	> 100 µM	> 100 µM	> 100 µM	> 100 µM	> 100 µM	> 100 µM	> 100 µM	> 100 µM		
O=Cc1ccc(-c2ccc(-c3ccc(CO)s3)o2)s1	98.8 µM	> 100 µM	47.6 µM	> 100 µM	> 80.3 µM			6.03 µM	> 88.8 µM	3.21 µM	> 22.2 µM	2.74 µM	
C=C1CC[C@H]2C(=O)OC(c3ccoc3)C[C@]2(C)C/C=C\C=C/1C(=O)OC (stereo partly drawn)	> 25 µM	> 25 µM	> 25 µM	> 25 µM	> 25 µM	> 25 µM		> 25 µM	> 25 µM	> 25 µM	> 25 µM		
O=P1(Cc2ccccc2)N(Cc2ccccc2)[C@@H]2CCCC[C@H]2N1Cc1ccccc1	19.7 µM	30.1 µM	26.9 µM	22.4 µM	24.9 µM	19.4 µM		20.6 µM	23.2 µM	25.8 µM	19.2 µM	8.06 µM	
CCC1CC(O)c2c(O)c3c(c(O)c2C1O)C(=O)c1cccc(O)c1C3=O (stereo not drawn) (tested in a mixture with another compound)		0.0707 µM and 0.128 µM	0.0326 µM and 0.0459 µM	0.147 µM and 0.0175 µM	0.164 µM and 0.404 µM	0.239 µM and 1.02 µM	0.0663 µM	0.0396 µM	1.05 µM	0.271 µM	0.0319 µM	0.0605 µM and 0.0406 µM	0.0118 µM
COc1ccc(C2(CC(C)C)CCN(S(=O)(=O)c3ccc(C)cc3)C2)cc1OC (stereo not drawn)	> 100 µM	> 100 µM	> 100 µM	68 µM	> 100 µM	> 100 µM		> 100 µM	> 100 µM	> 100 µM	76.5 µM	> 100 µM	
NCCCNCCCCN1CCOC1=O	> 100 µM	> 100 µM		> 100 µM	> 100 µM	> 100 µM	> 100 µM	> 100 µM	> 100 µM	> 100 µM	> 100 µM	> 100 µM	
Cc1ccc(C(=O)NCc2ccccc2)cc1N=NN(C)C	> 100 µM	> 100 µM		> 100 µM	> 100 µM	> 100 µM	> 100 µM	> 100 µM	> 100 µM	> 100 µM	> 100 µM	> 100 µM	
